Reference: patent publication US10066272B2, “Human homeobox gene ventx and macrophage terminal differentiation and activation, compositions and methods thereof” (priority 2011, dated 2018)

System: macrophages
Assay: Macrophage classical activation after siRNA transfection, surface markers by flow cytometry
Format: cell-based, human
Conditions: transfected macrophages
Procedure: Macrophages were generated through incubation of freshly isolated monocytes with 100 ng/mL M-CSF for 4 days. These macrophages were then transfected with siGFP or siVentX, respectively, and further cultured in RPMI 1640 medium for additional 3 days. Thereafter, cells were exposed to 1 μg/mL LPS plus 20 ng/mL γ-IFN for 6 hours. (A) Surface staining of CD40, CD80, CD86 and HLA-DR and intracellular staining of TNF-α and IL1-β were analyzed by flow cytometry. (B) Secreted TNF-α, IL1-β and IL12p70 from culture supernatants were determined with ELISA kits. (C) Reactive oxygen species (ROS) from siGFP or siVentX transfected macrophages were analyzed with fluorescence microscope (left) and flow cytometry (middle). […] (D) Nitrate level from siGFP and siVentX transfected macrophages. Data represent mean+SD of three different experiments. (E) Phagocytosis of siGFP and siVentX transfected macrophage. Red histogram represents transfection with siGFP; green histogram represents transfection with siVentX. Left panel: cells were incubated on ice; right panel: cells were incubated at 37° C. (F) Effects of VentX knockdown on mixed lymphocyte reaction. […]
(A) Effects VentX over-expression on the expression of LPS and IFN-γ pathways components. […] No significant binding of VentX to the promoter regions of STAT1 and JunB was detected by the ChIP assay. […]

siVentX: VentX siRNA, forward 5′-UUCAGAAUCGCCGCAUGAAACACAAACGG-3′ (SEQ ID NO:4), reverse SEQ ID NO:5 (antisense CCGUUUGUGUUUCAUGCGGCGAUUCUGAA; listed as RNA, chemistry not given here)
surface expression of CD40, CD80 and CD86 (LPS plus IFN-γ, HLA-DR not affected (FIG. 8A)): significantly down-regulated
surface expression of CD119 (IFN-γ receptor 1), CD14 and TLR4 (flow cytometry (FIG. 9C)): significantly diminished
